Experimental data from US6287840A (Axys Pharmaceuticals, Inc., priority 1999, dated 2001).
“And” between values parts separate entries of the source, which are not always exact repeats. Identical values can stand only once. Like-named read-outs stand apart in the source and are kept apart here.

How the values were obtained:
[1] = biological target: T1, Cathepsin B from human placenta (Homo sapiens, UniProt P07858); experiment: Inhibition of cathepsin B, Z-Arg-Arg-AMC fluorescence progress curves; type: biochemical; conditions: for k/KI (kirr/KI): values without asterisk, 25° C., pH 6.2
T1 construct: Cathepsin B from human placenta, obtained from Sigma; purchased Sigma; host or cells: human placenta (tissue)
In short: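 Human placental enzyme (~10 nM) in 50 mM phosphate pH 6.2 with 2.5 mM DTT and 2.5 mM EDTA, 50 μM Z-Arg-Arg-AMC, inhibitors 30-0.001 μM, 25° C. AMC fluorescence (ex 380/em 460 nm) progress curves fitted for kobs; kobs/[I] reported, with kirr, KI and kirr/KI substrate-corrected for selected compounds.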

Female Lewis rats = experiment: Mycobacterium butyricum induced arthritis in rats, compound in chow, 28 days; type: in vivo, rat
Description: At day zero, Female Lewis rats (5/group), 5 weeks old, were given intradermal injection into the base of the tail of Mycobacterium butyricum in 0.1 ml of light mineral oil. The animals were provided Teklad (4%) rat chow mixed with (treated groups) or without compound (control group) and water ad libilum. The compounds used were Mu-Phe-HphVSPh, Mu-Leu-HphVSPh, Mu-Tyr-HphVSPh, Mu-Phe-Lys(ε-Z)VSPh, Mu-Phe-LysVSPh-HBr. The compounds were given to three groups at 3, 10, and 30 mg/kg/day, respectively. The following parameters were noted: biweekly weights and biweekly joint evaluations by the following scoring system: paw swelling 0=no edema, 1=slight edema of small digital joints, 2=edema of the digital joints and foot pad, 3=gross edema of the entire foot pad below that ankle or elbow, 4=gross edema of the entire foot pad including the ankle and elbow joint Erythema was scored as: 0=normal, 1=pink, 2=red, 3=deep violaceous. The evaluators were blinded as to treatment groups.
After 28 days the animals were killed and the hind paws and knees were removed and fixed in 4% paraformaldehyde. […] Joint histopathology scores were calculated by the following method: two sections of each joint were read for synovial cell proliferation, cartilage erosion, bone erosion, fibroproliferative pannus, diffuse inflammatory synovitis, and synovial vasculitis: 0=normal, 1=mild, 2=moderate, 3=and severe. […]

P. carinii = experiment: Growth of P. carinii in vitro; type: cell-based; conditions: 10 mM each
Description: Mu-Leu-HphVSPh and Mu-Phe-LysVSPh.HBr were evaluated for their effects on the growth of P. carinii in vitro, according to the procedure of M. S. Bartlett et al. [Antimicrotubule Benzimidazoles Inhibit In Vitro Growth of P. carinii, M. S. Bartlett, T. D. Edlind, M. M. Durkin, M. M. Shaw, S. F. Queener, and J. W. Smith, (1992) Antimicrobial Agents and Chemotherapy, 36, 779-782; Antimicrobial susceptibility of P. carinii in culture, M. S. Bartlett, R. Eichholtz, and J. W. Smith (1985) Diagn. Microbiol. Infect. Dis.; 3, 381-387. Mu-Leu-HphVSPh and Mu-Phe-LysVSPh.HBr (10 mM each) inhibited the growth of P. carinii 64% and 50% respectively.

T. cruzi = T. cruzi infected irradiated J774 cells; type: cell-based; design: dose or concentration left out as unconfirmed; conditions: thereafter without inhibitor; compounds listed in decreasing order of effectiveness
Description: Irradiated J774 cells were infected with T. cruzi and simultaneously treated with […] of peptidyl vinyl derivatives for 5 days; thereafter without inhibitor. The following compounds were effective in decreasing order: Mu-Phe-ArgVSPh, Boc-Tyr(I2)-HphVSPh, Mu-Phe-VaIVSPh, Boc-Tic-HphVSPh, Mu-Phe-Ser(OBzl)VSPh, Mu-Leu-HphVSPh, Mu-Tyr(I2)-HphVSPh, Mu-Phe-LysVSPh, Mu-Tic-HphVSPh.

calpain = experiment: Inhibition (inactivation) of calpain, Suc-Leu-Tyr-AMC; type: biochemical; conditions: values marked * (or %); pH 7.5, 5 mM CaCl2, 25° C.
Description: The inhibitors were tested against calpain at 1 or 2% as for the other enzymes. The reaction conditions were 50 mM Tris, pH 7.5, 5 mM CaCl2, 2.5 mM DTT, assayed at 25° C. The substrate was 100 μM Suc-Leu-Tyr-AMC.

| SMILES | k/KI (kirr/KI) [1] | bone and cartilage destruction (Female Lewis rats; high dose) | inhibition of the growth of P. carinii (P. carinii) [%] | effectiveness against T. cruzi in J774 cells (T. cruzi) | kirr [1] [s⁻¹] | Ki ([1]; corrected for substrate) [µM] | kirr ([1]; listed as Mu-Phe-Hph-VSPh) | kobs /[I]* (calpain) [M⁻¹ s⁻¹] | effect on all scores (paw swelling, erythema, joint histopathology) (Female Lewis rats; 3, 10, and 30 mg/kg/day in chow, 28 days) |
| --- | --- | --- | --- | --- | --- | --- | --- | --- | --- |
| CC(C)C[C@H](NC(=O)N1CCOCC1)C(=O)N[C@H](/C=C/S(=O)(=O)c1ccccc1)CCc1ccccc1 [Mu-Leu-HphVSPh, (S)-(E)-3-(4-morpholinecarbonylleucyl)amino-5-phenyl-1-phenylsulfonyl-1-pentene] | 4250 M⁻¹ s⁻¹ | reduction in bone and cartilage destruction | 64 | effective |  |  |  |  |  |
| O=C(N[C@H](/C=C/S(=O)(=O)c1ccccc1)CCc1ccccc1)C(Cc1ccccc1)NC(=O)N1CCOCC1 (stereo partly drawn) [Mu-Phe-HphVSPh, (S)-(E)-3-(4-morpholinecarbonyl-phenylalanyl)amino-5-phenyl-1-phenylsulfonyl-1-pentene] | 16,400 M^-1 sec^-1 |  |  |  | 0.17 | 11 | 0.061 s⁻¹ and 0.12 s⁻¹ | < 50 | dose dependent beneficial effect on all scores |
